According to patent US11034650B2, “Compounds useful for treating a Mannheimia haemolytica or Histophilus somni infection” (Intervet Inc., priority 2016, dated 2021):
≈ marks a conversion by molar mass, not a printed value.

Assays:
Assay type in all cases: cell-based
[1] = system: Mannheimia haemolytica MH 10720 (154, BRD field isolate); assay: MIC, broth-microdilution (CLSI VET01-A4), strain MH 10720; conditions: Mannheimia haemolytica strain MH 10720, broth-microdilution; unit assumed
How it was run: (§1)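 Broth microdilution per CLSI VET01-A4, using trays with a doubling dilution series of compound; results interpreted per CLSI VET01-S3. MIC taken as lowest concentration with no turbidity visible to the unaided eye.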

[2] = system: Pasteurella multocida PM 12080 (IV102277-0093, BRD field isolate); assay: MIC, broth-microdilution (CLSI VET01-A4), strain PM 12080; conditions: Pasteurella multocida strain PM 12080, broth-microdilution; unit assumed
How it was run: as §1

[3] = system: Mannheimia haemolytica MH 12587 (1071, BRD field isolate, macrolide-resistance: erm+, E+); assay: MIC, broth-microdilution (CLSI VET01-A4), strain MH 12587; conditions: Mannheimia haemolytica strain MH 12587, broth-microdilution; unit assumed
How it was run: as §1

[4] = system: Pasteurella multocida PM 6391 (ATCC 43137, reference strain); assay: MIC, broth-microdilution (CLSI VET01-A4), strain PM 6391; conditions: Pasteurella multocida strain PM 6391, broth-microdilution; unit assumed
How it was run: as §1

[5] = system: Mannheimia haemolytica MH 6357 (M7/2, reference strain, cattle infection strain); assay: MIC, broth-microdilution (CLSI VET01-A4), strain MH 6357; conditions: Mannheimia haemolytica strain MH 6357, broth-microdilution; unit assumed
How it was run: as §1

[6] = system: Mannheimia haemolytica MH 6374 (ATCC 33396, reference strain); assay: MIC, broth-microdilution (CLSI VET01-A4), strain MH 6374; conditions: Mannheimia haemolytica strain MH 6374, broth-microdilution; unit assumed
How it was run: as §1

[7] = system: Mannheimia haemolytica MH 13065 (XB0446-6003.9, BRD field isolate); assay: MIC, broth-microdilution (CLSI VET01-A4), strain MH 13065; conditions: Mannheimia haemolytica strain MH 13065, broth-microdilution; unit assumed
How it was run: as §1

[8] = system: Pasteurella multocida PM 6267 (P 2225 (L386), reference strain, mouse infection strain); assay: MIC, broth-microdilution (CLSI VET01-A4), strain PM 6267; conditions: Pasteurella multocida strain PM 6267, broth-microdilution; unit assumed
How it was run: as §1

[9] = system: Pasteurella multocida PM 10775 (080130003051, BRD field isolate); assay: MIC, broth-microdilution (CLSI VET01-A4), strain PM 10775; conditions: Pasteurella multocida strain PM 10775, broth-microdilution; unit assumed
How it was run: as §1

[10] = system: Mannheimia haemolytica MH 13093 (XB0472-6014.1, BRD field isolate); assay: MIC, broth-microdilution (CLSI VET01-A4), strain MH 13093; conditions: Mannheimia haemolytica strain MH 13093, broth-microdilution; unit assumed
How it was run: as §1

MIC PM 12080 [2] [µg/mL] | MIC PM 6391 [4] [µg/mL] | MIC PM 6267 [8] [µg/mL] | MIC PM 10775 [9] [µg/mL] | SMILES | MIC MH 10720 [1] [µg/mL] | MIC MH 12587 [3] [µg/mL] | MIC MH 6357 [5] [µg/mL] | MIC MH 6374 [6] [µg/mL] | MIC MH 13065 [7] [µg/mL] | MIC MH 13093 [10] [µg/mL]
0.4 (≈ 0.874 µM) | ≤ 0.1 | 0.4 (≈ 0.874 µM) | ≤ 0.1 | CSC(C)(C)[C@H](NC(=O)c1ccc(C#Cc2ccc(CNC3CC3)s2)cc1)C(=O)NO [Compound 300] | ≤ 0.1 | 0.8 (≈ 1.75 µM) | 0.4 (≈ 0.874 µM) | 0.8 (≈ 1.75 µM) | 0.4 (≈ 0.874 µM) | 0.8 (≈ 1.75 µM)
0.2 (≈ 0.397 µM) | 0.4 (≈ 0.794 µM) | 0.4 (≈ 0.794 µM) | ≤ 0.1 | CSC(C)(C)[C@H](NC(=O)c1ccc(C#Cc2ccc(CNCc3cccnc3)nc2)cc1)C(=O)NO [Compound 367] | 0.4 (≈ 0.794 µM) | 3.1 (≈ 6.16 µM) | 0.8 (≈ 1.59 µM) | 0.8 (≈ 1.59 µM) | 1.6 (≈ 3.18 µM) | 3.1 (≈ 6.16 µM)
≤ 0.1 | ≤ 0.1 | ≤ 0.1 | ≤ 0.1 | CSC(C)(C)[C@H](NC(=O)c1ccc(C#Cc2ccc(CNCc3ccncc3)cc2)cc1)C(=O)NO [Compound 241] | ≤ 0.1 | 0.8 (≈ 1.59 µM) | 0.4 (≈ 0.796 µM) | 0.8 (≈ 1.59 µM) | 0.4 (≈ 0.796 µM) | 0.4 (≈ 0.796 µM)
0.4 (≈ 0.874 µM) | 1.6 (≈ 3.5 µM) | 0.4 (≈ 0.874 µM) | ≤ 0.1 | C=CCNCc1ccc(C#Cc2ccc(C(=O)N[C@H](C(=O)NO)C(C)(C)SC)cc2)s1 [Compound 301] | ≤ 0.1 | 0.8 (≈ 1.75 µM) | 0.4 (≈ 0.874 µM) | 0.8 (≈ 1.75 µM) | 0.4 (≈ 0.874 µM) | 0.8 (≈ 1.75 µM)
≤ 0.1 | ≤ 0.1 | 0.4 (≈ 0.846 µM) | ≤ 0.1 | CC(C)(O)[C@H](NC(=O)c1ccc(C#Cc2ccc(CNCc3ccccc3)nc2)cc1)C(=O)NO [Compound 327] | ≤ 0.1 | 1.6 (≈ 3.39 µM) | 0.8 (≈ 1.69 µM) | 0.8 (≈ 1.69 µM) | 0.4 (≈ 0.846 µM) | 0.8 (≈ 1.69 µM)
≤ 0.1 | 0.2 (≈ 0.394 µM) | ≤ 0.1 | ≤ 0.1 | CSC(C)(C)[C@H](NC(=O)c1ccc(C#Cc2ccc(CNCc3cccs3)cc2)cc1)C(=O)NO [Compound 251] | ≤ 0.1 | 1.6 (≈ 3.15 µM) | 0.8 (≈ 1.58 µM) | 0.8 (≈ 1.58 µM) | 0.8 (≈ 1.58 µM) | 0.8 (≈ 1.58 µM)
0.8 (≈ 1.77 µM) | 1.6 (≈ 3.54 µM) | 0.8 (≈ 1.77 µM) | ≤ 0.1 | C=CCNCc1ccc(C#Cc2ccc(C(=O)N[C@H](C(=O)NO)C(C)(C)SC)cc2)cn1 [Compound 336] | 0.2 (≈ 0.442 µM) | 3.1 (≈ 6.85 µM) | 0.8 (≈ 1.77 µM) | 0.8 (≈ 1.77 µM) | 1.6 (≈ 3.54 µM) | 1.6 (≈ 3.54 µM)
0.4 (≈ 0.921 µM) | ≤ 0.1 | 3.1 (≈ 7.13 µM) | 0.4 (≈ 0.921 µM) | C=CCNCc1ccc(C#Cc2ccc(C(=O)N[C@H](C(=O)NO)C(C)=NOC)cc2)cc1 [Compound 379] | 0.8 (≈ 1.84 µM) | 0.4 (≈ 0.921 µM) | 0.8 (≈ 1.84 µM) | 1.6 (≈ 3.68 µM) | 1.6 (≈ 3.68 µM) | 1.6 (≈ 3.68 µM)
≤ 0.1 | 0.4 (≈ 0.936 µM) | 0.8 (≈ 1.87 µM) | ≤ 0.1 | C=CCNCc1ccc(C#Cc2ccc(C(=O)N[C@H](C(=O)NO)C(C)(C)O)cc2)s1 [Compound 291] | ≤ 0.1 | 0.8 (≈ 1.87 µM) | ≤ 0.1 | ≤ 0.1 | 0.4 (≈ 0.936 µM) | 0.4 (≈ 0.936 µM)
0.4 (≈ 0.786 µM) | 0.4 (≈ 0.786 µM) | 0.8 (≈ 1.57 µM) | ≤ 0.1 | CSC(C)(C)[C@H](NC(=O)c1ccc(C#Cc2ccc(CNCc3ccccn3)s2)cc1)C(=O)NO [Compound 307] | ≤ 0.1 | 1.6 (≈ 3.15 µM) | 0.8 (≈ 1.57 µM) | 0.8 (≈ 1.57 µM) | 0.8 (≈ 1.57 µM) | 1.6 (≈ 3.15 µM)
0.4 (≈ 1.02 µM) | 0.8 (≈ 2.03 µM) | 0.4 (≈ 1.02 µM) | ≤ 0.1 | CCNCc1ccc(C#Cc2ccc(C(=O)N[C@H](C(=O)NO)C(C)C)cc2)cc1 [Compound 201] | 3.1 (≈ 7.88 µM) | 12.5 (≈ 31.8 µM) | 12.5 (≈ 31.8 µM) | 6.3 (≈ 16 µM) | 6.3 (≈ 16 µM) | 6.3 (≈ 16 µM)
≤ 0.1 | ≤ 0.1 | 0.2 (≈ 0.351 µM) | ≤ 0.1 | COc1ccc(CNCc2ccc(C#Cc3ccc(C(=O)N[C@H](C(=O)NO)C(C)(C)S(C)(=O)=O)cc3)s2)cc1 [Compound 316] | ≤ 0.1 | 0.8 (≈ 1.4 µM) | ≤ 0.1 | 0.2 (≈ 0.351 µM) | 0.2 (≈ 0.351 µM) | 0.4 (≈ 0.702 µM)
0.2 (≈ 0.444 µM) | 0.2 (≈ 0.444 µM) | ≤ 0.1 | ≤ 0.1 | CSC(C)(C)[C@H](NC(=O)c1ccc(C#Cc2ccc(CNCC#N)cc2)cc1)C(=O)NO [Compound 246] | ≤ 0.1 | 0.8 (≈ 1.78 µM) | 0.4 (≈ 0.888 µM) | 0.8 (≈ 1.78 µM) | 0.8 (≈ 1.78 µM) | 0.4 (≈ 0.888 µM)
0.2 (≈ 0.398 µM) | 0.8 (≈ 1.59 µM) | ≤ 0.1 | ≤ 0.1 | CSC(C)(C)[C@H](NC(=O)c1ccc(C#Cc2ccc(CNCc3cccnc3)cc2)cc1)C(=O)NO [Compound 247] | 0.2 (≈ 0.398 µM) | 0.8 (≈ 1.59 µM) | 0.4 (≈ 0.796 µM) | 0.8 (≈ 1.59 µM) | 0.4 (≈ 0.796 µM) | 0.8 (≈ 1.59 µM)
0.4 (≈ 0.834 µM) | 1.6 (≈ 3.34 µM) | 0.4 (≈ 0.834 µM) | ≤ 0.1 | CC(C)(O)[C@H](NC(=O)c1ccc(C#Cc2ccc(CNCc3ncccn3)s2)cc1)C(=O)NO [Compound 360] | 0.8 (≈ 1.67 µM) | 6.3 (≈ 13.1 µM) | 0.8 (≈ 1.67 µM) | 1.6 (≈ 3.34 µM) | 1.6 (≈ 3.34 µM) | 6.3 (≈ 13.1 µM)
≤ 0.1 | 0.2 (≈ 0.369 µM) | 0.2 (≈ 0.369 µM) | ≤ 0.1 | CC(C)([C@H](NC(=O)c1ccc(C#Cc2ccc(CNCc3nccs3)nc2)cc1)C(=O)NO)S(C)(=O)=O [Compound 374] | 0.4 (≈ 0.738 µM) | 3.1 (≈ 5.72 µM) | 0.8 (≈ 1.48 µM) | 0.8 (≈ 1.48 µM) | 1.6 (≈ 2.95 µM) | 3.1 (≈ 5.72 µM)
0.2 (≈ 0.43 µM) | 0.4 (≈ 0.859 µM) | ≤ 0.1 | ≤ 0.1 | CC(C)(O)C(NC(=O)c1ccc(C#Cc2ccc(CNCC3CCCO3)cc2)cc1)C(=O)NO (stereo not shown) [Compound 234] | 0.4 (≈ 0.859 µM) | 6.3 (≈ 13.5 µM) | 6.3 (≈ 13.5 µM) | 3.1 (≈ 6.66 µM) | 3.1 (≈ 6.66 µM) | 6.3 (≈ 13.5 µM)
0.4 (≈ 0.796 µM) | 0.8 (≈ 1.59 µM) | 0.2 (≈ 0.398 µM) | ≤ 0.1 | CSC(C)(C)[C@H](NC(=O)c1ccc(C#Cc2ccc(CNCc3ccccn3)cc2)cc1)C(=O)NO [Compound 249] | 0.2 (≈ 0.398 µM) | 1.6 (≈ 3.18 µM) | 0.8 (≈ 1.59 µM) | 1.6 (≈ 3.18 µM) | 0.8 (≈ 1.59 µM) | 0.8 (≈ 1.59 µM)
0.2 (≈ 0.371 µM) | 0.4 (≈ 0.741 µM) | 0.8 (≈ 1.48 µM) | ≤ 0.1 | Cc1cnc(CNCc2ccc(C#Cc3ccc(C(=O)N[C@H](C(=O)NO)C(C)(C)S(C)(=O)=O)cc3)cn2)o1 [Compound 357] | ≤ 0.1 | 1.6 (≈ 2.97 µM) | 0.8 (≈ 1.48 µM) | 0.8 (≈ 1.48 µM) | 0.8 (≈ 1.48 µM) | 1.6 (≈ 2.97 µM)
1.6 (≈ 3.8 µM) | 1.6 (≈ 3.8 µM) | 0.8 (≈ 1.9 µM) | ≤ 0.1 | O=C(N[C@@H](CO)C(=O)NO)c1ccc(C#Cc2ccc(CNC3CCCC3)cc2)cc1 [Compound 148] | 1.6 (≈ 3.8 µM) | 25 (≈ 59.3 µM) | 6.3 (≈ 14.9 µM) | 25 (≈ 59.3 µM) | 12.5 (≈ 29.7 µM) | 12.5 (≈ 29.7 µM)

SMILES | MIC PM 12080 [2] [µg/mL] | MIC PM 6391 [4] [µg/mL] | MIC PM 6267 [8] [µg/mL] | MIC PM 10775 [9] [µg/mL] | MIC MH 10720 [1] [µg/mL] | MIC MH 12587 [3] [µg/mL] | MIC MH 6357 [5] [µg/mL] | MIC MH 6374 [6] [µg/mL] | MIC MH 13065 [7] [µg/mL] | MIC MH 13093 [10] [µg/mL]
CC(C)([C@H](NC(=O)c1ccc(C#Cc2ccc(CNC3CC3)cc2)cc1)C(=O)NO)S(C)(=O)=O [C.255] | ≤ 0.1 | ≤ 0.1 | ≤ 0.1 | ≤ 0.1 | ≤ 0.1 | 1.6 (≈ 3.31 µM) | 0.8 (≈ 1.65 µM) | 0.4 (≈ 0.827 µM) | 0.4 (≈ 0.827 µM) | 0.8 (≈ 1.65 µM)
C=CCNCc1ccc(C#Cc2ccc(C(=O)N[C@H](C(=O)NO)C(C)(C)S(C)(=O)=O)cc2)cc1 [C.256] | ≤ 0.1 | ≤ 0.1 | ≤ 0.1 | ≤ 0.1 | ≤ 0.1 | 1.6 (≈ 3.31 µM) | 1.6 (≈ 3.31 µM) | 0.8 (≈ 1.65 µM) | 0.8 (≈ 1.65 µM) | 0.8 (≈ 1.65 µM)
